The assay has as its system CD2F1 mice, L1210 leukemia ip, survival T/C. Put plainly: NCI In Vivo Anticancer Drug Screen. Data for tumor model L1210 Leukemia (intraperitoneal) in CD2F1 (CDF1) mice. Conditions: higher = longer survival. An outline of the steps: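 Ratio T/C, where T is the treated-group value and C the vehicle-dosed control value, from mice implanted with a transplantable tumor.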

[1] abbreviates: endpoint: mean survival time, dose: 100.0 mg/kg/injection, schedule: Q01DX009 (ip), vehicle: saline with Tween-80.
Where [2] appears, read: endpoint: mean survival time, dose: 100.0 mg/kg/injection, schedule: Q04DX002 (ip), vehicle: saline with Tween-80.
Where [3] appears, read: endpoint: mean survival time, dose: 100.0 mg/kg/injection, schedule: Q04DX003 (ip), vehicle: saline with Tween-80.
The mark [4] stands for this setting: endpoint: mean survival time, dose: 200.0 mg/kg/injection, schedule: Q01DX009 (ip), vehicle: saline with Tween-80.
The mark [5] stands for this setting: endpoint: mean survival time, dose: 200.0 mg/kg/injection, schedule: Q04DX002 (ip), vehicle: saline with Tween-80.
Where [6] appears, read: endpoint: mean survival time, dose: 200.0 mg/kg/injection, schedule: Q04DX003 (ip), vehicle: saline with Tween-80.
The mark [7] stands for this setting: endpoint: mean survival time, dose: 400.0 mg/kg/injection, schedule: Q01DX009 (ip), vehicle: saline with Tween-80.
Setting [8] is: endpoint: mean survival time, dose: 400.0 mg/kg/injection, schedule: Q04DX002 (ip), vehicle: saline with Tween-80.
Where [9] appears, read: endpoint: mean survival time, dose: 400.0 mg/kg/injection, schedule: Q04DX003 (ip), vehicle: saline with Tween-80.
Where [10] appears, read: endpoint: mean survival time, dose: 5.0 mg/kg/injection, schedule: Q04DX003 (ip), vehicle: saline with Tween-80.
The mark [11] stands for this setting: endpoint: mean survival time, dose: 10.0 mg/kg/injection, schedule: Q04DX003 (ip), vehicle: saline with Tween-80.
[12] abbreviates: endpoint: mean survival time, dose: 100.0 mg/kg/injection, schedule: Q01DX001 (ip), vehicle: saline.
[13] abbreviates: endpoint: mean survival time, dose: 200.0 mg/kg/injection, schedule: Q01DX001 (ip), vehicle: saline.
Where [14] appears, read: endpoint: mean survival time, dose: 400.0 mg/kg/injection, schedule: Q01DX001 (ip), vehicle: saline.
The mark [15] stands for this setting: endpoint: mean survival time, dose: 50.0 mg/kg/injection, schedule: Q04DX003 (ip), vehicle: saline with Tween-80.

Where “and” joins values, the source holds several entries; their conditions need not be identical. Identical values can stand only once. Inconclusive results and toxic doses are left out.

Consider `CCOC(=O)C1CC(=O)C(C(=O)OCC)CC1=O` (configuration not stated), for which the T/C was 100 % of control under setting [1]; 107 % of control under setting [2]; 100 % of control under setting [3]; 97 % of control under setting [4]; 98 % of control under setting [5]; 93 % of control under setting [6]. Also, the T/C under setting [7] was 97 % of control, the T/C under setting [8] is 102 % of control and the T/C under setting [9] is 98 % of control.
As for `c1ccc(Oc2cc[c]([Sn]([c]3ccccc3)([c]3ccccc3)[c]3ccc(Oc4ccccc4)cc3)cc2)cc1`, the T/C is 106 % of control under setting [1], 100 % of control under setting [4] and 98 % of control under setting [7].
Turning to `Cc1cn(CC(O)c2cc3ccccc3[nH]2)c(=O)[nH]c1=O` (configuration not stated), the T/C under setting [2] is 97 % of control, the T/C under setting [5] was 97 % of control and the T/C under setting [8] is 93 % of control.
Turning to `O=c1[nH]c(=S)ccn1C1OC(COP(=O)(O)O)C(O)C1O` (configuration not stated), the T/C (endpoint: mean survival time, dose: 12.5 mg/kg/injection, schedule: Q01DX005 (ip), vehicle: water) was 98 % of control; the T/C (endpoint: mean survival time, dose: 25.0 mg/kg/injection, schedule: Q01DX005 (ip), vehicle: water) was 103 % of control; the T/C (endpoint: mean survival time, dose: 50.0 mg/kg/injection, schedule: Q01DX005 (ip), vehicle: water) was 103 % of control; the T/C (endpoint: mean survival time, dose: 100.0 mg/kg/injection, schedule: Q01DX005 (ip), vehicle: water) is 103 % of control; the T/C (endpoint: mean survival time, dose: 200.0 mg/kg/injection, schedule: Q01DX005 (ip), vehicle: water) is 103 % of control.
In the case of `COc1cc2ccc(CC(N)=O)cc2cc1OC`, the T/C under setting [1] was 100 % of control, the T/C under setting [4] is 97 % of control and the T/C under setting [7] is 97 % of control.
As for `CC(C)(C)COC(=O)Nc1cccc(O)c1`, the T/C is, setting by setting: under setting [3], 96 % of control; under setting [6], 95 % of control; under setting [9], 102 % of control.
`CCN(Cc1cnc2nc(N)nc(N)c2n1)c1c(Cl)cc(C(=O)NC(CCC(=O)O)C(=O)O)cc1Cl` (configuration not stated): the T/C was 117 % of control (endpoint: mean survival time, dose: 3.12 mg/kg/injection, schedule: Q01DX009 (ip), vehicle: sodium bicarbonate); 117 % of control (endpoint: mean survival time, dose: 6.25 mg/kg/injection, schedule: Q01DX009 (ip), vehicle: sodium bicarbonate); 170 % of control (endpoint: mean survival time, dose: 100.0 mg/kg/injection, schedule: Q01DX009 (ip), vehicle: sodium bicarbonate).
For the molecule `CN1CCN(c2ccc([N+](=O)[O-])c3no[n+]([O-])c23)CC1`, the T/C (endpoint: mean survival time, dose: 2.5 mg/kg/injection, schedule: Q01DX009 (ip), vehicle: saline with Tween-80) is 105 % of control and 112 % of control; the T/C (endpoint: mean survival time, dose: 5.0 mg/kg/injection, schedule: Q01DX009 (ip), vehicle: saline with Tween-80) was 114 % of control and 108 % of control; the T/C (endpoint: mean survival time, dose: 5.0 mg/kg/injection, schedule: Q01DX009 (ip), vehicle: saline) was 123 % of control; the T/C (endpoint: mean survival time, dose: 10.0 mg/kg/injection, schedule: Q01DX009 (ip), vehicle: saline with Tween-80) is 116 % of control and 110 % of control; the T/C (endpoint: mean survival time, dose: 20.0 mg/kg/injection, schedule: Q01DX009 (ip), vehicle: saline with Tween-80) is 117 % of control and 119 % of control; the T/C (endpoint: mean survival time, dose: 40.0 mg/kg/injection, schedule: Q01DX009 (ip), vehicle: saline with Tween-80) is 122 % of control and 103 % of control. Moreover, for the setting “endpoint: mean survival time, dose: 80.0 mg/kg/injection, schedule: Q01DX009 (ip), vehicle: saline with Tween-80”, the T/C is 121 % of control.
For `CCCCC(CC)C(=O)[O][Pb]([CH3])([CH3])[CH3]` (configuration not stated), the T/C is, setting by setting: under setting [10], 97 % of control; under setting [11], 98 % of control.
As for `COc1ccc2c(c1)CCN1C2CCN2CCCC21` (configuration not stated), the T/C reads like this: under setting [3], 98 % of control; under setting [6], 90 % of control.
On to `[Cl][Pt+2][Cl].[NH-]Nc1nc2ccccc2s1.[NH-]Nc1nc2ccccc2s1`, for which the T/C is 102 % of control under setting [10]; 98 % of control under setting [11]; 94 % of control (endpoint: mean survival time, dose: 20.0 mg/kg/injection, schedule: Q04DX003 (ip), vehicle: saline with Tween-80); 98 % of control (endpoint: mean survival time, dose: 40.0 mg/kg/injection, schedule: Q04DX003 (ip), vehicle: saline with Tween-80); 94 % of control (endpoint: mean survival time, dose: 80.0 mg/kg/injection, schedule: Q04DX003 (ip), vehicle: saline with Tween-80).
Regarding `Cc1c2ccccc2c(CN2CC(O)CC2C(=O)O)c2ccccc12` (configuration not stated), the T/C by setting is: under setting [3], 94 % of control; under setting [6], 93 % of control; under setting [9], 87 % of control.
On to `CC1(C)NC(=O)NC1=O`, for which the T/C under setting [12] is 98 % of control, the T/C under setting [13] was 107 % of control and the T/C under setting [14] was 107 % of control.
Turning to `CCCCCCCC(=O)Nc1ccc(-n2c(=O)cc(C)n2C)cc1`, the T/C runs as follows: under setting [1], 90 % of control; under setting [3], 90 % of control; under setting [4], 88 % of control; under setting [6], 97 % of control; under setting [7], 86 % of control; under setting [9], 95 % of control.
`CSc1nc(N)c2c(ncn2C2OC(CO)C(O)C2O)n1` (configuration not stated): the T/C is, setting by setting: under setting [12], 105 % of control; under setting [13], 100 % of control; under setting [14], 97 % of control.
For the molecule `CCOP(=S)(OCC)N1CC1`, the T/C under setting [2] is 104 % of control, the T/C under setting [5] is 93 % of control and the T/C under setting [8] is 89 % of control.
As for `COc1ccc(C(C)c2cc3c(cc2OC)OCO3)cc1` (configuration not stated), the T/C (endpoint: median survival time, dose: 25.0 mg/kg/injection, schedule: Q01DX009 (ip), vehicle: saline with Tween-80) is 101 % of control; the T/C (endpoint: median survival time, dose: 50.0 mg/kg/injection, schedule: Q01DX009 (ip), vehicle: saline with Tween-80) was 107 % of control; the T/C (endpoint: median survival time, dose: 100.0 mg/kg/injection, schedule: Q01DX009 (ip), vehicle: saline with Tween-80) is 113 % of control; the T/C (endpoint: median survival time, dose: 200.0 mg/kg/injection, schedule: Q01DX009 (ip), vehicle: saline with Tween-80) was 119 % of control.
Regarding `CCOP(=S)(N1CC1)N1CC1`, the T/C is 94 % of control (endpoint: mean survival time, dose: 100.0 mg/kg/injection, schedule: Q01DX009 (ip), vehicle: other); 100 % of control (endpoint: mean survival time, dose: 200.0 mg/kg/injection, schedule: Q01DX009 (ip), vehicle: other); 90 % of control (endpoint: mean survival time, dose: 400.0 mg/kg/injection, schedule: Q01DX009 (ip), vehicle: other).
For `CC1(C)C(=O)C2(I)CCC1C2` (configuration not stated), the T/C by setting is: under setting [3], 101 % of control; under setting [6], 98 % of control; under setting [9], 98 % of control.
On to `CN(C)C(=O)OCC#CCOC(=O)N(C)C`, for which the T/C (endpoint: mean survival time, dose: 100.0 mg/kg/injection, schedule: Q04DX002 (ip), vehicle: saline) was 101 % of control and the T/C (endpoint: mean survival time, dose: 200.0 mg/kg/injection, schedule: Q04DX002 (ip), vehicle: saline) is 86 % of control.
With `NC1CCCCC1N.O=S(=O)([O-])c1ccccc1S(=O)(=O)[O-].[Pt+4]`, the T/C was 105 % of control (endpoint: median survival time, dose: 1.56 mg/kg/injection, schedule: Q04DX003 (ip), vehicle: saline); 212 % of control and 216 % of control (endpoint: median survival time, dose: 6.25 mg/kg/injection, schedule: Q04DX003 (ip), vehicle: saline); 212 % of control and 361 % of control (endpoint: median survival time, dose: 12.5 mg/kg/injection, schedule: Q04DX003 (ip), vehicle: saline); 244 % of control and 375 % of control (endpoint: median survival time, dose: 25.0 mg/kg/injection, schedule: Q04DX003 (ip), vehicle: saline); 180 % of control (endpoint: median survival time, dose: 50.0 mg/kg/injection, schedule: Q04DX003 (ip), vehicle: saline).
`CC/C=C(\CC)CO`: the T/C (endpoint: mean survival time, dose: 50.0 mg/kg/injection, schedule: Q01DX009 (ip), vehicle: saline with Tween-80) is 100 % of control; the T/C under setting [1] is 95 % of control; the T/C under setting [4] was 100 % of control.
Consider `CCCCNC(=O)C1CC2c3cccc4[nH]cc(c34)CC2N(C)C1` (configuration not stated), for which the T/C by setting is: under setting [15], 88 % of control; under setting [3], 91 % of control.
Consider `CC1(C)CC(C)(OC(=O)c2ccccc2)N=N1` (configuration not stated), for which the T/C is 97 % of control (endpoint: mean survival time, dose: 25.0 mg/kg/injection, schedule: Q01DX009 (ip), vehicle: Klucel (hydroxypropylcellulose) (HPC)); 94 % of control (endpoint: mean survival time, dose: 50.0 mg/kg/injection, schedule: Q01DX009 (ip), vehicle: Klucel (hydroxypropylcellulose) (HPC)); 101 % of control (endpoint: mean survival time, dose: 100.0 mg/kg/injection, schedule: Q01DX009 (ip), vehicle: Klucel (hydroxypropylcellulose) (HPC)); 100 % of control (endpoint: mean survival time, dose: 200.0 mg/kg/injection, schedule: Q01DX009 (ip), vehicle: Klucel (hydroxypropylcellulose) (HPC)); 101 % of control (endpoint: mean survival time, dose: 400.0 mg/kg/injection, schedule: Q01DX009 (ip), vehicle: Klucel (hydroxypropylcellulose) (HPC)).
Regarding `O=C1C(Cl)=C(SCc2ccccc2)C(=O)c2ccccc21`, the T/C is 91 % of control (endpoint: mean survival time, dose: 25.0 mg/kg/injection, schedule: Q04DX003 (ip), vehicle: saline with Tween-80) and 91 % of control under setting [15].

For the origin of these results see PubChem BioAssay AID256 (DTP/NCI, 2004).
